From PubChem BioAssay (NCI)
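All cell lines were grown in 96-well plates and treated with compound for 48 hours. GI50: concentration for 50% inhibition of growth. TGI denotes the concentration required for complete inhibition of growth.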

Experiments:
Experiment in all cases: NCI tumour cell line growth inhibition, 48 h
LOX IMVI melanoma = test system: LOX IMVI melanoma
NCI-H226 lung = test system: NCI-H226 lung
SW-620 colon = test system: SW-620 colon
OVCAR-5 ovarian = test system: OVCAR-5 ovarian
PC-3 prostate = test system: PC-3 prostate
UO-31 renal = test system: UO-31 renal
SF-295 CNS = test system: SF-295 CNS
M14 melanoma = test system: M14 melanoma
SK-MEL-5 melanoma = test system: SK-MEL-5 melanoma
SN12C renal = test system: SN12C renal
A549 NSCLC = test system: A549 NSCLC
U251 CNS = test system: U251 CNS
T-47D breast = test system: T-47D breast
K-562 leukemia = test system: K-562 leukemia
ACHN renal = test system: ACHN renal
HT29 colon = test system: HT29 colon
SK-OV-3 ovarian = test system: SK-OV-3 ovarian
COLO 205 colon = test system: COLO 205 colon
RPMI-8226 leukemia = test system: RPMI-8226 leukemia
OVCAR-8 ovarian = test system: OVCAR-8 ovarian
BT-549 breast = test system: BT-549 breast
HS 578T breast = test system: HS 578T breast
HL-60(TB) leukemia = test system: HL-60(TB) leukemia
SNB-19 CNS = test system: SNB-19 CNS
CCRF-CEM leukemia = test system: CCRF-CEM leukemia
UACC-62 melanoma = test system: UACC-62 melanoma
MCF7 breast = test system: MCF7 breast
SK-MEL-2 melanoma = test system: SK-MEL-2 melanoma
TK-10 renal = test system: TK-10 renal
SNB-75 CNS = test system: SNB-75 CNS
HCT-116 colon = test system: HCT-116 colon
HOP-62 NSCLC = test system: HOP-62 NSCLC
IGROV1 ovarian = test system: IGROV1 ovarian
MOLT-4 leukemia = test system: MOLT-4 leukemia
NCI-H522 lung = test system: NCI-H522 lung
MALME-3M melanoma = test system: MALME-3M melanoma
SK-MEL-28 melanoma = test system: SK-MEL-28 melanoma
A498 renal = test system: A498 renal
MDA-MB-435 = test system: MDA-MB-435
CAKI-1 renal = test system: CAKI-1 renal
NCI/ADR-RES ovarian = test system: NCI/ADR-RES ovarian
HOP-92 NSCLC = test system: HOP-92 NSCLC
DU-145 prostate = test system: DU-145 prostate
OVCAR-4 ovarian = test system: OVCAR-4 ovarian
786-0 renal = test system: 786-0 renal
SR leukemia = test system: SR leukemia
HCC-2998 colon = test system: HCC-2998 colon
RXF 393 renal = test system: RXF 393 renal
OVCAR-3 ovarian = test system: OVCAR-3 ovarian
HCT-15 colon = test system: HCT-15 colon
KM12 colon = test system: KM12 colon
MDA-MB-231 breast = test system: MDA-MB-231 breast
UACC-257 melanoma = test system: UACC-257 melanoma
NCI-H23 lung = test system: NCI-H23 lung
EKVX NSCLC = test system: EKVX NSCLC
NCI-H460 lung = test system: NCI-H460 lung
SF-268 CNS = test system: SF-268 CNS

CC1=C2C(=C[C@@](C)(COS(C)(=O)=O)[C@@H]2O)C(=O)[C@](C)(O)C12CC2
GI50 (LOX IMVI melanoma): 0.365 µM
TGI (LOX IMVI melanoma): 1.69 µM
GI50 (NCI-H226 lung): 2.12 µM
TGI (NCI-H226 lung): 6.17 µM
GI50 (SW-620 colon): 0.32 µM
TGI (SW-620 colon): > 100 µM
GI50 (OVCAR-5 ovarian): 0.382 µM
TGI (OVCAR-5 ovarian): 3.06 µM
GI50 (PC-3 prostate): 0.624 µM
TGI (PC-3 prostate): 4.82 µM
GI50 (UO-31 renal): 1.57 µM
TGI (UO-31 renal): 5.52 µM
GI50 (SF-295 CNS): 0.293 µM
TGI (SF-295 CNS): 1.28 µM
GI50 (M14 melanoma): 0.717 µM
TGI (M14 melanoma): 2.54 µM
GI50 (SK-MEL-5 melanoma): 0.272 µM
TGI (SK-MEL-5 melanoma): 0.755 µM
GI50 (SN12C renal): 1.99 µM
TGI (SN12C renal): 10.7 µM
GI50 (A549 NSCLC): 0.604 µM
TGI (A549 NSCLC): 6.92 µM
GI50 (U251 CNS): 0.286 µM
TGI (U251 CNS): 1.34 µM
GI50 (T-47D breast): 1.79 µM
TGI (T-47D breast): 7.78 µM
GI50 (K-562 leukemia): 0.478 µM
TGI (K-562 leukemia): > 100 µM
GI50 (ACHN renal): 0.349 µM
TGI (ACHN renal): 3.55 µM
GI50 (HT29 colon): 0.414 µM
TGI (HT29 colon): 28.6 µM
GI50 (SK-OV-3 ovarian): 0.447 µM
TGI (SK-OV-3 ovarian): 2.22 µM
GI50 (COLO 205 colon): 0.761 µM
TGI (COLO 205 colon): 2.84 µM
GI50 (RPMI-8226 leukemia): 3.66 µM
TGI (RPMI-8226 leukemia): 52 µM
GI50 (OVCAR-8 ovarian): 1.74 µM
TGI (OVCAR-8 ovarian): 12 µM
GI50 (BT-549 breast): 0.632 µM
TGI (BT-549 breast): 2.47 µM
GI50 (HS 578T breast): 1.77 µM
TGI (HS 578T breast): 4.78 µM
GI50 (HL-60(TB) leukemia): 0.466 µM
TGI (HL-60(TB) leukemia): 4.53 µM
GI50 (SNB-19 CNS): 0.477 µM
TGI (SNB-19 CNS): 6.01 µM
GI50 (CCRF-CEM leukemia): 0.344 µM
TGI (CCRF-CEM leukemia): > 100 µM
GI50 (UACC-62 melanoma): 0.257 µM
TGI (UACC-62 melanoma): 0.731 µM
GI50 (MCF7 breast): 0.238 µM
TGI (MCF7 breast): 2.55 µM
GI50 (SK-MEL-2 melanoma): 0.289 µM
TGI (SK-MEL-2 melanoma): 0.793 µM
GI50 (TK-10 renal): 2.22 µM
TGI (TK-10 renal): 7.14 µM
GI50 (SNB-75 CNS): 1.37 µM
TGI (SNB-75 CNS): 2.86 µM
GI50 (HCT-116 colon): 0.315 µM
TGI (HCT-116 colon): > 31.7 µM
GI50 (HOP-62 NSCLC): 0.371 µM
TGI (HOP-62 NSCLC): 2.04 µM
GI50 (IGROV1 ovarian): 0.556 µM
TGI (IGROV1 ovarian): 5.67 µM
GI50 (MOLT-4 leukemia): 0.331 µM
TGI (MOLT-4 leukemia): > 100 µM
GI50 (NCI-H522 lung): 0.347 µM
TGI (NCI-H522 lung): 1.56 µM
GI50 (MALME-3M melanoma): 0.459 µM
TGI (MALME-3M melanoma): 1.76 µM
GI50 (SK-MEL-28 melanoma): 0.678 µM
TGI (SK-MEL-28 melanoma): 2.5 µM
TGI (A498 renal): 0.694 µM
GI50 (MDA-MB-435): 0.757 µM
TGI (MDA-MB-435): 2.21 µM
GI50 (CAKI-1 renal): 0.406 µM
TGI (CAKI-1 renal): 5.36 µM
GI50 (NCI/ADR-RES ovarian): 0.762 µM
TGI (NCI/ADR-RES ovarian): 5.97 µM
GI50 (HOP-92 NSCLC): 0.357 µM
TGI (HOP-92 NSCLC): 1.48 µM
GI50 (DU-145 prostate): 0.366 µM
TGI (DU-145 prostate): 5.04 µM
GI50 (OVCAR-4 ovarian): 1.45 µM
TGI (OVCAR-4 ovarian): 5.68 µM
GI50 (786-0 renal): 1.96 µM
TGI (786-0 renal): 6.74 µM
GI50 (SR leukemia): 0.36 µM
TGI (SR leukemia): > 100 µM
GI50 (HCC-2998 colon): 0.648 µM
TGI (HCC-2998 colon): 2.87 µM
GI50 (RXF 393 renal): 0.335 µM
TGI (RXF 393 renal): 0.93 µM
GI50 (OVCAR-3 ovarian): 0.544 µM
TGI (OVCAR-3 ovarian): 4.53 µM
GI50 (HCT-15 colon): 0.443 µM
TGI (HCT-15 colon): 5.14 µM
GI50 (KM12 colon): 0.579 µM
TGI (KM12 colon): 7.13 µM
GI50 (MDA-MB-231 breast): 1.34 µM
TGI (MDA-MB-231 breast): 5.99 µM
GI50 (UACC-257 melanoma): 2.39 µM
TGI (UACC-257 melanoma): 6.9 µM
GI50 (NCI-H23 lung): 0.35 µM
TGI (NCI-H23 lung): 1.56 µM
GI50 (EKVX NSCLC): 1.66 µM
TGI (EKVX NSCLC): 5.22 µM
GI50 (NCI-H460 lung): 0.216 µM
TGI (NCI-H460 lung): 0.517 µM
GI50 (SF-268 CNS): 0.333 µM
TGI (SF-268 CNS): 2.29 µM
